The subject of one experiment is colo-205 cells. Briefly: DNA content / G1 arrest assay, colo-205 (Acumen). The following applies: for 2N cell population / 4N cell population / S cell population: Colo-205 cells. The class given is cell-based, human. On the procedure: Details for the cellular assays are provided in the supplemental materials. Briefly, image-based assays (Acumen Explorer, TPP LabTech) were used for compound screening. […] After treatment, the cells were washed, fixed and stained with antibodies to detect phosphoproteins and Propidium Iodide to monitor DNA content. The plates were then analyzed on an Acumen Explorer (TTP Labtech). The IC50 and EC50 values are determined by curve fitting to a 4-parameter logistic for each output using ACTIVITY BASE™ software.
Fixed cells are blocked with 1% bovine serum albumin (BSA, Amersham cat # RPN412V) for 30 minutes. […] Image analysis is based on cellular fluorescent signals for identifying cells in different subpopulations. Assay outputs are a percentage of each identified subpopulations; percent phosphoRB positive, percent 2 N, and percent 4 N. The IC50 and EC50 values are determined by curve fitting to a 4-parameter logistic for each output using ACTIVITY BASE™.

The subject of another experiment is pCTD (pSer2) U2OS. Briefly: Cellular assay for inhibition of RNA polymerase CTD (Ser2) phosphorylation (pCTD), U2OS. The class given is cell-based. The following applies: Homo sapiens, n=1.
The test system of the next experiment is U2OS cells. The experiment can be described thus: DNA content (cell cycle) in U2OS phenotypic assay. In kind it is cell-based, human. On the procedure:
U20S cells are cultured in McCoy's 5A modified media (Invitrogen), supplemented with 10% FBS and plated in 96-well, flat-bottom plates at a density of 5,000 cells/well for incubation overnight. Compounds in DMSO stock solution are diluted serially 1:3 in McCoy's 5A media and incubated with cells for 16 hours for multiplexing pCTD/DNA content readouts. Cells are fixed with Prefer (Anatech LTD, MI) for 30 minutes at room temperature and permeated with 0.1% Triton-X 100 in PBS or cold methanol (-20°C) for 15 minutes, respectively. After blocking with 1% BSA/PBS for 30 min, cells are incubated with primary antibody (CTD p-Ser2, Covance) at 1:1000 dilution in 1% BSA/PBS containing 50 ug/ml RNAse ([…], Sigma) at 4°C overnight. […] Table S1 and Figure S1.

Experiment [1] relates to Colo-205 colorectal xenografts. Briefly: Subcutaneous colo-205 xenograft antitumor activity. The class given is in vivo, mice. The following applies: Colo-205 colorectal. On the procedure: (§1) All animal studies were performed in accordance with American Association for Laboratory Animal Care institutional guidelines, and all protocols were approved by the Eli Lilly and Company Animal Care and Use Committee. Tumor cell lines were grown, harvested, and resuspended in a 1:1 mixture of serum-free media and matrigel (BD Biosciences), and 5 × 10^6 cells were injected subcutaneously in the rear flank of 5-to-6-week-old CD1 nu/nu female mice (Charles River Laboratories for MV4-11, mice from Harlan Laboratories for others).
(§2) When the mean tumor volume was approximately 150–300 mm^3, animals were randomized by tumor volume and the compound was administered. […] Gemcitabine was formulated in saline and administered by intraperitoneal injection. Tumor volume and body weight were measured twice weekly. When tumors were collected for biomarker analysis, the animals were asphyxiated with CO2 and the xenograft tumors excised, flash frozen in liquid nitrogen, and stored at −80 °C until analyzed. For analysis, tumor volume data were transformed to a log scale to equalize variance across time and treatment groups. The log volume data were analyzed with a 2-way repeated measures analysis of variance by time and treatment using the MIXED procedure in SAS software (version 9.2). The correlation model for the repeated measures was spatial power. Treated groups are compared to the control group at each time point.

For another experiment, the system named is MV4-11 AML xenografts. Briefly: Subcutaneous MV4-11 xenograft antitumor activity. The class given is in vivo, mice. The following applies: 50 mg/kg qdx21, day 49. On the procedure: as §1
as §2, with “Treated groups are compared to the control group at each time point.” left out

Experiment [2] has as its system U87 MG glioblastoma xenografts. Briefly: Subcutaneous U87 MG xenograft antitumor activity. The class given is in vivo, mice. The following applies: 50 mg/kg qdx21, day 31. On the procedure:
as §1
as §2, with “Treated groups are compared to the control group at each time point.” left out

A further experiment has as its system H460 lung xenografts. The experiment can be described thus: Subcutaneous H460 xenograft antitumor activity. The class given is in vivo, mice. The following applies: 50 mg/kg qdx21, day 35. Here is the method: as §1
as §2, with “Treated groups are compared to the control group at each time point.” left out

In a further experiment the test system is Jeko1 MCL xenografts. The experiment can be described thus: Subcutaneous Jeko1 xenograft antitumor activity. In kind it is in vivo, mice. The following applies: 100 mg/kg, day 45. On the procedure: as §1
as §2, with “Treated groups are compared to the control group at each time point.” left out

The next experiment concerns Calu-6 lung xenografts. Briefly: Subcutaneous Calu-6 xenograft antitumor activity. The class given is in vivo, mice. The following applies: 50 mg/kg LY2835219 oral, 60 or 150 mg/kg gemcitabine i.p. On the procedure: as §1
as §2, with “Treated groups are compared to the control group at each time point.” left out

The subject of experiment [3] is RRM1 expression in Calu-6 xenografts. Briefly: Western blot of RRM1 in Calu-6 xenograft tumors. In kind it is in vivo, mice. The following applies: 150 mg/kg dose, Calu-6 tumors 24 h after last dose. Here is the method: as §2
On the technique in general: A western blot detects proteins with antibodies after separation by electrophoresis.

Counter-ions that a name gives are not always drawn.

Protocol for pCTD (pSer2) U2OS: U20S cells are cultured in McCoy’s 5A modified media (Invitrogen), supplemented with 10% FBS and plated in 96-well, flat-bottom plates at a density of 5,000 cells/well for incubation overnight. Compounds in DMSO stock solution are diluted serially 1:3 in McCoy’s 5A media and incubated with cells for 16 hours for multiplexing pCTD/DNA content readouts. Cells are fixed with Prefer (Anatech LTD, MI) for 30 minutes at room temperature and permeated with 0.1% Triton-X 100 in PBS or cold methanol (-20°C) for 15 minutes, respectively. After blocking with 1% BSA/PBS for 30 min, cells are incubated with primary antibody (CTD p-Ser2, Covance) at 1:1000 dilution in 1% BSA/PBS containing 50 ug/ml RNAse (R6513, Sigma) at 4°C overnight. […] The IC50 and EC50 values are determined by curve fitting to a 4-parameter logistic for each output using ACTIVITY BASE™.
The assay detects CDK9 activity through both the inhibition of phosphorylation ser2 of the C-terminal repeat domain (pCTD) of RNA polymerase II, and a CDK9-modulated G2/M arrest [accumulation of cells with 4N DNA content]

Consider `CN1CC[C@H](c2c(O)cc(O)c3c(=O)cc(-c4ccccc4Cl)oc23)[C@H](O)C1` [Flavopiridol], for which the 2N cell population was 54% with colo-205 cells (2.2 µM), 50% in the experiment on colo-205 cells (6.6 µM), 22% in the experiment on U2OS cells (2.2 µM) and 23% with U2OS cells (6.6 µM). In addition, the 4N cell population in the experiment with colo-205 cells (2.2 µM) is 44%; in the experiment with colo-205 cells (6.6 µM), 49%; with U2OS cells (2.2 µM), 74%; with U2OS cells (6.6 µM), 72%. Further, the S cell population was determined as 2% in the experiment with colo-205 cells (2.2 µM), 1% in the experiment on colo-205 cells (6.6 µM), 4% in the experiment on U2OS cells (2.2 µM) and 5% with U2OS cells (6.6 µM). In addition, the EC50 in the experiment on colo-205 cells (Homo sapiens, COLO 205, read-out: G1 arrest in Colo205 (increase in cells with 2N DNA content) EC50) is above 20000 nM. Further, the IC50 in the experiment with pCTD (pSer2) U2OS is 147 nM.
Regarding `CC(=O)c1c(C)c2cnc(Nc3ccc(N4CCNCC4)cn3)nc2n(C2CCCC2)c1=O` [PD0332991, 6-Acetyl-8-cyclopentyl-5-methyl-2-[[5-(1-piperazinyl)-2-pyridinyl]amino] pyrido[2,3-d] pyrimidin-7 (8H)-one], the “Percent delta T/C, percent regression” value is recorded as 7% in experiment [1] (50 mg/kg (schedule not given), day 39); −1% in experiment [1] (100 mg/kg qdx21, day 35); 16% with MV4-11 AML xenografts; 26% in [2]; 60% with H460 lung xenografts; 12% with Jeko1 MCL xenografts.
As for `Nc1ccn([C@@H]2O[C@H](CO)[C@@H](O)C2(F)F)c(=O)n1` [gemcitabine, 2′,2′-difluorodeoxycytidine hydrochloric salt], the “tumor growth inhibition, compound alone” value with Calu-6 lung xenografts was “active in inhibiting tumor growth”. The “increase of RRM1 compared to vehicle” value in [3] is 75%.

What is called EC50 is the concentration giving half of the maximal effect. Broadly, the IC50 is the concentration that gives 50% inhibition. A high value points to a need for much substance.

For the origin of these results see PMC4169866 (Investigational New Drugs, 2014).
